Earlier results, collected in patent publication US12156898B2, “Formulations of terlipressin” (BIOVIE Inc., priority 2019, dated 2024).
Bridge positions count the residues as written; N and C are the ends. Peptide text beside a SMILES is read from it.

Experiments:
patients = settings: human, in vivo
[1] = in vivo

half-life [1]: short half-life
Compound: NCCCC[C@H](NC(=O)[C@@H]1CCCN1C(=O)[C@@H]1CSSC[C@H](NC(=O)CNC(=O)CNC(=O)CN)C(=O)N[C@@H](Cc2ccc(O)cc2)C(=O)N[C@@H](Cc2ccccc2)C(=O)N[C@@H](CCC(N)=O)C(=O)N[C@@H](CC(N)=O)C(=O)N1)C(=O)NCC(N)=O [terlipressin] (H-GGGCYFQNCPKG-NH2; disulfide 4-9)
severe side effects requiring discontinuation of treatment, share of patients (patients): up to 10%
side effects, share of patients (patients): up to 40%
